Test results reported in paper PMC9147060, “Elucidating Pathway and Anesthetic Mechanism of Action of Clove Oil Nanoformulations in Fish” (Pharmaceutics, 2022).

Biological target: T1, GABAA receptor (γ-aminobutyric acid subtype A receptor)
T1 construct: gene Gabra1; native receptor mixture in cerebral cortical synaptosomal membranes of adult male rats
Assay: [3H]muscimol binding to rat cortical membranes, filtration
Conditions: enhancement of 5 nM [3H]muscimol binding; 50 mM Tris-HCl pH 7.4, 0-4 °C, 1 h; in DMSO; positive modulation

EC50: 1250 µM
SMILES: C=CCc1ccc(O)c(OC)c1 [eugenol]
